The text below walks through data of USRE39608E1, “Substituted benzimidazoles and their use as PARP inhibitors” (Abbott GmbH & Co. KG, priority 1998, dated 2007).

For data set [1] the following is noted: S. Cuzzocrea et al., Br. J. Pharmacol. 121 (1997); cited from earlier work.
Data set [2] can be described thus: Determination of the water solubility. Format: physicochemical. As to conditions: pH of from 5 to 6 with sodium acetate solution. The protocol: A compound to be measured was dissolved directly in a specified volume of water and the resulting solution was brought to a pH of from 5 to 6 with a sodium acetate solution so that the concentration of the active compound to be tested was reached. If the test substance was not present as a water-soluble salt, it was dissolved in a very small amount of dimethyl sulfoxide and then diluted with water (final concentration of dimethyl sulfoxide≦1%), after which the pH was adjusted here too. Here, Example 1 according to the invention gave a solubility of >0.5%.

Counter-ions that a name gives are not always drawn.

With `NC(=O)c1cccc(N)c1` [3-aminobenzamide], the “protective effects in a model for circulatory shock” value in data set [1] was “protective effects”.

Consider `NC(=O)c1cccc2[nH]c(C3CCNCC3)nc12` [Example 1, 2-(Piperidin-4-yl)benzimidazole-4-carboxamide.2 HCl], for which the solubility in data set [2] is given as more than 0.5%.
